PMC5724689, “Increased Conformational Flexibility of a Macrocycle–Receptor Complex Contributes to Reduced Dissociation Rates” (Chemistry (Weinheim an Der Bergstrasse, Germany), 2017)

How the values were obtained:
[1] = biological target: T1, 14-3-3ζ (14‐3‐3 isoform ζ) (Homo sapiens, UniProt P63104); assay: biochemical; format: binding; conditions: ITC, T = 303.15 K, pH 7.4; mean value of 3 runs
T1 construct: 14-3-3ζ (aa 1-245) with remaining His-Tag; made in house
T1 sequence (P63104 1-245): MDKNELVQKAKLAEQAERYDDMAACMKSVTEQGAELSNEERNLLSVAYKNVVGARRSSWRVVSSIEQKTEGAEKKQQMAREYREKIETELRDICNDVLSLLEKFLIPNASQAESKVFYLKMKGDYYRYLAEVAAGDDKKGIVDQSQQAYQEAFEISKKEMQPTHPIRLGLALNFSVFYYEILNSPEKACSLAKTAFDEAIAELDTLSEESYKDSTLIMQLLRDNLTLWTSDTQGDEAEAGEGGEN

[2] = biological target: T1, 14-3-3ζ (14‐3‐3 isoform ζ); assay: biochemical; format: binding; conditions: for koff: 19F NMR line shape analysis, slow exchange, 50 mM HEPES, 100 mM NaCl, 2 mM MgCl2, 1% DMSO, 10% D2O, pH 7.4, room temperature, error from fitting procedure (Equation S1), read-out: dissociation rate koff (NMR); for association rate kon = koff × Kd^-1 (Figure 2b) / kon: calculated from koff (19F NMR) and ITC-derived Kd; for kon: read-out: association rate kon = koff × Kd^-1

CC(C)C[C@H](NC(=O)[C@H](CC(=O)O)NC(=O)[C@H](CC(C)C)NC(=O)[C@]1(C)CCCCCCCCCCCC[C@](C)(NC(=O)CNC(=O)[C@H](CCC(N)=O)NC(=O)CNC(=O)C(F)(F)F)C(=O)N[C@@H](CC(C)C)C(=O)N[C@@H](CC(=O)O)C(=O)N1)C(=O)N[C@@H](C)C(=O)N[C@@H](CO)C(N)=O [MC22]
Kd [1]: 111 nM | koff [2]: 0.45 s⁻¹ | association rate kon = koff × Kd^-1 (Figure 2b) [2]: 4.12 ±0.39 s^-1M^-1 10^6 | kon [2]: 4.12e+06 M⁻¹ s⁻¹

CC(C)C[C@H](NC(=O)[C@H](CC(=O)O)NC(=O)[C@H](CC(C)C)NC(=O)[C@]1(C)CCCCCCCC[C@@](C)(NC(=O)CNC(=O)[C@H](CCC(N)=O)NC(=O)CNC(=O)C(F)(F)F)C(=O)N[C@@H](CC(C)C)C(=O)N[C@@H](CC(=O)O)C(=O)N1)C(=O)N[C@@H](C)C(=O)N[C@@H](CO)C(N)=O [MC18]
Kd [1]: 362 nM | koff [2]: 1.58 s⁻¹ | association rate kon = koff × Kd^-1 (Figure 2b) [2]: 4.38 ±0.47 s^-1M^-1 10^6 | kon [2]: 4.38e+06 M⁻¹ s⁻¹
